Laboratory results reported in patent publication US12668803B2, “Glypican-3-specific modified aptamer and use thereof” (APTAMER SCIENCES INC., priority 2019, dated 2026).

Tested on: Huh 7 cells
Experiment: Cell binding analysis of Cy5-labeled aptamers (FACS)
Type: cell-based
Conditions: three vs five gemcitabines bound, method of Example 2-1, FIG. 19
Experimental: The 12-10 aptamer and 5 aptamer libraries prepared by truncating the 12-10 aptamer at various lengths [12-10 (40-mer), 12-12 (35-mer), 12-11 (29-mer), 12-13 (24-mer), 12-14 (23-mer), 12-15 (18-mer)] were subjected to cell binding analysis. Each aptamer sequence was labeled with Cy5 at the 5′ end thereof according to the method of Example 1-1. Huh 7 cells (ATCC, Rockville, MD, USA) were seeded at a density of 2×10^6/mL in a 100 mm^2 culture plate, and cultured using a DMEM medium (Gibco, Grand Island, NY, USA) containing 10% FBS (Gibco, Grand Island, NY, USA) and 1% antibiotics (penicillin/streptomycin) under conditions of 5% CO2 and 37° C. 5 μM of the aptamer stock was mixed with 5×SB18 buffer to prepare the aptamer at a concentration of 4 μM, and heated at 95° C. for 5 min, and then cooled at room temperature for 15 min or more. 4 μM of the aptamer was diluted with KRPH buffer (20 mM HEPES, 5 mM KH2PO4, 1 mM MgSO4, 1 mM CaCl2, 136 mM NaCl, 4.7 mM KCl, pH 7.4) at a concentration of 25 nM. The culture medium was removed from the cultured cells, and 4 mL of phosphate-buffered saline (PBS) was added thereto, followed by washing, and then 4 mL of PBS was removed. 4 mL of cold PBS or warm PBS was added, and cells were scraped using a scraper, and collected in tubes, followed by pipetting. The cells were divided and added to fluorescence-activated cell sorting (FAC) tubes according to the number of samples, followed by centrifugation at 4° C. and 2000 rpm for 4 min. After removing the supernatant, each 500 μL of 25 nM aptamer and control (31-08 (40-mer) aptamer) were added to […] of KRPH buffer, followed by pipetting. The tube was covered with foil to block the light, followed by incubation at 4° C. for 30 min. After incubation, centrifugation was performed at 4° C. and 2000 rpm for 4 min, and the supernatant was removed. 2 mL of cold 1×PBS was added, washed, centrifuged at 4° C. and 2000 rpm for 4 min, and the supernatant was removed. This process was repeated three times. […] Cy5 was measured at […]. […]

## Combi 5 G(3) (DNA GNGAANGCGNNGAANNANWYSSSNNCAGNCANCAC; gemcitabines, 2'-OMe, 2'-F, BzdU, 3' idT; Combi 5 G(3); (1)..(1) G is 2-O-Methoxy-DNA.; (2)..(2) n is BzdU.; (3)..(3) G is 2-O-Methoxy-DNA.; (4)..(4) A is 2-Fluorine-DNA.; (5)..(5) A is 2-Fluorine-DNA.; (6)..(6) n is BzdU.; (10)..(10) n is BzdU.; (11)..(11) n is BzdU.; (12)..(12) G is 2-Fluorine-DNA.; (13)..(13) A is 2-Fluorine-DNA.; (14)..(14) A is 2-O-Methoxy-DNA.; (15)..(15) n is BzdU.; (16)..(16) n is BzdU.; (17)..(17) A is 2-O-Methox)
  cell binding ability: excellent cell binding ability
